The numbers were not newly measured in patent US20190160002A1, “PROCESS FOR PREPARING STERILE ARIPIPRAZOLE FORMULATION” (Mylan Laboratories Ltd., priority 2016, published 2019), which cites them from elsewhere.

Structures are written as SMILES.

Turning to `O=C1CCc2ccc(OCCCCN3CCN(c4cccc(Cl)c4Cl)CC3)cc2N1` [aripiprazole monohydrate], for the setting “dry heat sterilization”, the “Effect of dry heat sterilization” value is given as “melted”. For the same compound, the “Effect of gamma-ray and electron beam sterilization” value (gamma-ray and electron beam) is “discolored and decomposed”. In addition, under “particles in aqueous suspension, steam heat sterilization”, the “Effect of steam heat sterilization on particles” value is recorded as “tend to agglomerate”.
